Data reported in BindingDB's records for doi:10.1073/pnas.0509591102 (Mcgill University, 2005).

How the values were obtained:
[1] = molecular target: Muscarinic acetylcholine receptor M5 (Homo sapiens, UniProt P08912)
[2] = molecular target: Alpha-2B adrenergic receptor (Homo sapiens, UniProt P18089)
[3] = molecular target: 5-hydroxytryptamine receptor 7 (Homo sapiens, UniProt P34969)
[4] = molecular target: Sodium-dependent noradrenaline transporter (Homo sapiens, UniProt P23975)
[5] = molecular target: Muscarinic acetylcholine receptor M2 (Homo sapiens, UniProt P08172)
[6] = molecular target: ATP-dependent translocase ABCB1 (Homo sapiens, UniProt P08183)
Sequence of ATP-dependent translocase ABCB1 (P08183 whole entry): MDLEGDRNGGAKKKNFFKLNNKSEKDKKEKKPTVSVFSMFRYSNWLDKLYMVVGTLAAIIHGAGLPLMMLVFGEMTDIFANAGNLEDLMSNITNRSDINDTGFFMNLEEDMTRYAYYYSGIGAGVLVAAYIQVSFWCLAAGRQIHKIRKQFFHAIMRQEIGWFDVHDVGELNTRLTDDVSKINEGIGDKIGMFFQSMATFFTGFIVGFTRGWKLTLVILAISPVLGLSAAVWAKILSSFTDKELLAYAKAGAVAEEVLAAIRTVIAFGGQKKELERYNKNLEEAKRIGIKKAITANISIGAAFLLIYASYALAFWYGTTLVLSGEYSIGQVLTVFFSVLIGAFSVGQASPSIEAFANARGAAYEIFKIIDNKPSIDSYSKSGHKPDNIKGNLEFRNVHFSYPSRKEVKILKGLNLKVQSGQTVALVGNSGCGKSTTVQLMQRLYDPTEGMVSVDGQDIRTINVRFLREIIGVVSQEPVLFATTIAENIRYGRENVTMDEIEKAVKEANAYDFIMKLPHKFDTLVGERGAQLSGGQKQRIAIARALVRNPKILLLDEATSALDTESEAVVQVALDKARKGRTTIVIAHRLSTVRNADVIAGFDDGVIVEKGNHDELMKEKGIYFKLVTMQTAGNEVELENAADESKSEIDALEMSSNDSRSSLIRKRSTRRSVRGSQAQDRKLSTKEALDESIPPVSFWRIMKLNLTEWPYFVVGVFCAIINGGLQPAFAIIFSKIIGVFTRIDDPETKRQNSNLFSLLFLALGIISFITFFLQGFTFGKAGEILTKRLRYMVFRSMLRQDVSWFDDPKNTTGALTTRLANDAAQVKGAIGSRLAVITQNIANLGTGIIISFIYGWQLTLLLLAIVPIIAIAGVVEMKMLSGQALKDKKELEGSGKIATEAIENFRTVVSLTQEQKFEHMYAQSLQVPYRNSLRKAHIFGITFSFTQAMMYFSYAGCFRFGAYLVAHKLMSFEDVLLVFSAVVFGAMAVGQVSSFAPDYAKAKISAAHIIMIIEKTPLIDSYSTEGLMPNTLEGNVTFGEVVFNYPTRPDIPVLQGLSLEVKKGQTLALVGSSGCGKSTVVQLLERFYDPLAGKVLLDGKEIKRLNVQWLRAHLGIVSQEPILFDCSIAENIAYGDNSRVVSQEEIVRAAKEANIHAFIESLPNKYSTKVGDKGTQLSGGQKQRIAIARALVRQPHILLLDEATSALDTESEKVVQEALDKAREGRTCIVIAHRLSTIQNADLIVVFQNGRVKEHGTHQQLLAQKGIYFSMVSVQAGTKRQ

[7] = molecular target: Beta-2 adrenergic receptor (Rattus norvegicus, UniProt P10608)
[8] = molecular target: Sigma non-opioid intracellular receptor 1 (Rattus norvegicus, UniProt Q9R0C9)
Sequence of Sigma non-opioid intracellular receptor 1 (Q9R0C9 whole entry): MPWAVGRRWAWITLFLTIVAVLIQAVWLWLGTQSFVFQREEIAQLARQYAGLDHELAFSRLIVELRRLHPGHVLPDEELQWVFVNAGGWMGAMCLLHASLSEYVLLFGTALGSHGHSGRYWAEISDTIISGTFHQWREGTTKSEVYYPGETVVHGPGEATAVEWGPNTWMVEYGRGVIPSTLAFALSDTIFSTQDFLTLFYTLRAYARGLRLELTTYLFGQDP

[9] = molecular target: Neuronal acetylcholine receptor subunit alpha-2 (Homo sapiens, UniProt Q15822)
Sequence of Neuronal acetylcholine receptor subunit alpha-2 (Q15822 whole entry): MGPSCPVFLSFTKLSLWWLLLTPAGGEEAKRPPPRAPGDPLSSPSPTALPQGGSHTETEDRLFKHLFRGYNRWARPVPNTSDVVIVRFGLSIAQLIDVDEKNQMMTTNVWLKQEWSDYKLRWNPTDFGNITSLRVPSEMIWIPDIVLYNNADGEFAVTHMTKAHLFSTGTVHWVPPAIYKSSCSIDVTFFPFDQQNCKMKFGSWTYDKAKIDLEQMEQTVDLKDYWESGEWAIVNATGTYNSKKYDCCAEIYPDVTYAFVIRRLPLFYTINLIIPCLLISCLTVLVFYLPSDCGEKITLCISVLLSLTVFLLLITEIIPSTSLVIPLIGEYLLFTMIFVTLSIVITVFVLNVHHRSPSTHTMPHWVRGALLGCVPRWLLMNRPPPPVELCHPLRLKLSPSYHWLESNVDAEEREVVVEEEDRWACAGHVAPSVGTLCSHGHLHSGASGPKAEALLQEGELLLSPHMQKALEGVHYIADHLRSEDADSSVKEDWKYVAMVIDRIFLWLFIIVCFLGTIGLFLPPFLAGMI

D(3) dopamine receptor = D(3) dopamine receptor (Rattus norvegicus, UniProt P19020)
Sequence of D(3) dopamine receptor (P19020 whole entry): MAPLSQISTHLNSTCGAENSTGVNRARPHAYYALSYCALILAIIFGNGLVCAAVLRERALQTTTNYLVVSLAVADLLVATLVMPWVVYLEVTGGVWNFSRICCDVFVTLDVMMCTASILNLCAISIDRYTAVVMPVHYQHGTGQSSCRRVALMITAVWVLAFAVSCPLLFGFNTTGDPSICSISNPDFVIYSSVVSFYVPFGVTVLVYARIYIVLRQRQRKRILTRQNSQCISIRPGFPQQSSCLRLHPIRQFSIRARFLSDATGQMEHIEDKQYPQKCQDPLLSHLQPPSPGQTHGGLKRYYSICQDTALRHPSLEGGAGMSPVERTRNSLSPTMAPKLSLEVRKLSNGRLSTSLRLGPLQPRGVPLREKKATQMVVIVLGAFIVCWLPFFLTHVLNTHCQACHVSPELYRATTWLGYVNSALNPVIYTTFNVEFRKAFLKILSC

[10] = molecular target: 5-hydroxytryptamine receptor 2C (Rattus norvegicus, UniProt P08909)
[11] = molecular target: Neuronal acetylcholine receptor subunit alpha-4 (Homo sapiens, UniProt P43681)
Histamine H2 receptor = Histamine H2 receptor (Homo sapiens, UniProt P25021)
[12] = molecular target: 5-hydroxytryptamine receptor 1B (Homo sapiens, UniProt P28222)
[13] = molecular target: 5-hydroxytryptamine receptor 1A (Homo sapiens, UniProt P08908)
[14] = molecular target: AP-2 complex subunit sigma (Rattus norvegicus, UniProt P62744)
Sequence of AP-2 complex subunit sigma (P62744 whole entry, looked up, one chain of several): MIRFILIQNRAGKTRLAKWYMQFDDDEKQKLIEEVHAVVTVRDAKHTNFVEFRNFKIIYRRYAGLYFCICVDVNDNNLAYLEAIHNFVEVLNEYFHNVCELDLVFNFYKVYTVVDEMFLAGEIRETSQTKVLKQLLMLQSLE

[15] = molecular target: Alpha-2A adrenergic receptor (Homo sapiens, UniProt P08913)
Sequence of Alpha-2A adrenergic receptor (P08913 whole entry): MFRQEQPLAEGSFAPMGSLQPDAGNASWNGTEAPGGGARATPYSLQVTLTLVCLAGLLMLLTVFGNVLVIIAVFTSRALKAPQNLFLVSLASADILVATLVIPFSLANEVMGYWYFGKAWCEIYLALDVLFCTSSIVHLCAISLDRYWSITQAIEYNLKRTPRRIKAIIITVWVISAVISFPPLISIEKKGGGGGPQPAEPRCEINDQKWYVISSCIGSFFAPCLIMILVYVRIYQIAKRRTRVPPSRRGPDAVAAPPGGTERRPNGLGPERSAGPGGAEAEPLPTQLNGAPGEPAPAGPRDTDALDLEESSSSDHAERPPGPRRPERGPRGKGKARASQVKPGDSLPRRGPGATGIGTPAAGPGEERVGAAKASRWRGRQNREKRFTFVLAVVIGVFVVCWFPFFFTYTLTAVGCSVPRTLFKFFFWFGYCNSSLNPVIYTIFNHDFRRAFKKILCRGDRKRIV

[16] = molecular target: Muscarinic acetylcholine receptor M1 (Homo sapiens, UniProt P11229)
[17] = molecular target: Beta-1 adrenergic receptor (Rattus norvegicus, UniProt P18090)
[18] = molecular target: 5-hydroxytryptamine receptor 1D (Homo sapiens, UniProt P28221)
[19] = molecular target: Muscarinic acetylcholine receptor M3 (Homo sapiens, UniProt P20309)
[20] = molecular target: Potassium voltage-gated channel subfamily H member 2 (Homo sapiens, UniProt Q12809)
[21] = molecular target: 5-hydroxytryptamine receptor 6 (Homo sapiens, UniProt P50406)
Histamine H1 receptor = Histamine H1 receptor (Homo sapiens, UniProt P35367)
Mu-type opioid receptor = Mu-type opioid receptor (Homo sapiens, UniProt P35372)
[22] = molecular target: Alpha-1B adrenergic receptor (Homo sapiens, UniProt P35368)
Sequence of Alpha-1B adrenergic receptor (P35368 whole entry): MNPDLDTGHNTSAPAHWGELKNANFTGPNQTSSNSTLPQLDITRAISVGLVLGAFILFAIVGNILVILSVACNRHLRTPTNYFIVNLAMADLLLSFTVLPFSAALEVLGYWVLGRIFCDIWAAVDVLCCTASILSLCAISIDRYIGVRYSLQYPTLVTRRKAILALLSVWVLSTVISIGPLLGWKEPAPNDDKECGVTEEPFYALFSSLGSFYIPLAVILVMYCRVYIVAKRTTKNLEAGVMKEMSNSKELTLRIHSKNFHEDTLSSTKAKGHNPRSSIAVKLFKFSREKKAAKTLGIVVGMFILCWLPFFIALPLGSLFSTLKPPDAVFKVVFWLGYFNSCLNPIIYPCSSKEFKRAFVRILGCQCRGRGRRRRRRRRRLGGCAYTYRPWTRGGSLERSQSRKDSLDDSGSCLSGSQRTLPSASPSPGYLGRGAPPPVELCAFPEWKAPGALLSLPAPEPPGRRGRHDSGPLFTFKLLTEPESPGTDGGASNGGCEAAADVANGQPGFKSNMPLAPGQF

[23] = molecular target: Alpha-1A adrenergic receptor (Homo sapiens, UniProt P35348)
[24] = molecular target: Alpha-2C adrenergic receptor (Homo sapiens, UniProt P18825)
[25] = molecular target: Kappa-type opioid receptor (Homo sapiens, UniProt P41145)
[26] = molecular target: Neuronal acetylcholine receptor subunit alpha-3 (Homo sapiens, UniProt P32297)
D(1A) dopamine receptor = D(1A) dopamine receptor (Homo sapiens, UniProt P21728)
D(2) dopamine receptor = D(2) dopamine receptor (Homo sapiens, UniProt P14416)
[27] = molecular target: 5-hydroxytryptamine receptor 1E (Homo sapiens, UniProt P28566)
[28] = molecular target: 5-hydroxytryptamine receptor 2A (Homo sapiens, UniProt P28223)
D(4) dopamine receptor = D(4) dopamine receptor (Homo sapiens, UniProt P21917)
[29] = molecular target: 5-hydroxytryptamine receptor 3A (Homo sapiens, UniProt P46098)
[30] = molecular target: Muscarinic acetylcholine receptor M4 (Homo sapiens, UniProt P08173)
D(1B) dopamine receptor = D(1B) dopamine receptor (Homo sapiens, UniProt P21918)
Sequence of D(1B) dopamine receptor (P21918 whole entry): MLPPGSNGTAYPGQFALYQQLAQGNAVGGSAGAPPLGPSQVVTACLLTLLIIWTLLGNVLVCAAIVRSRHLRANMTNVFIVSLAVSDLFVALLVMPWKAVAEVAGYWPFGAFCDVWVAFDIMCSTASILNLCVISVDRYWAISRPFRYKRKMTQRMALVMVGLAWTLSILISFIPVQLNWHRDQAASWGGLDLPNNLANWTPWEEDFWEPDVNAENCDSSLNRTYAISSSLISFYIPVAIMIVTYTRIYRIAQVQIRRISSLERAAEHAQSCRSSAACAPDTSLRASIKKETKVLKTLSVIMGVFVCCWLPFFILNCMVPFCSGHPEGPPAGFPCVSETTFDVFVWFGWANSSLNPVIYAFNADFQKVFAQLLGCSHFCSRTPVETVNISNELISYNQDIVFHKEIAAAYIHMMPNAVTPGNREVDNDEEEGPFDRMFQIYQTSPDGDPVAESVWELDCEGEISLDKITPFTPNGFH

Cannabinoid receptor 2 = Cannabinoid receptor 2 (Homo sapiens, UniProt P34972)
Sequence of Cannabinoid receptor 2 (P34972 whole entry): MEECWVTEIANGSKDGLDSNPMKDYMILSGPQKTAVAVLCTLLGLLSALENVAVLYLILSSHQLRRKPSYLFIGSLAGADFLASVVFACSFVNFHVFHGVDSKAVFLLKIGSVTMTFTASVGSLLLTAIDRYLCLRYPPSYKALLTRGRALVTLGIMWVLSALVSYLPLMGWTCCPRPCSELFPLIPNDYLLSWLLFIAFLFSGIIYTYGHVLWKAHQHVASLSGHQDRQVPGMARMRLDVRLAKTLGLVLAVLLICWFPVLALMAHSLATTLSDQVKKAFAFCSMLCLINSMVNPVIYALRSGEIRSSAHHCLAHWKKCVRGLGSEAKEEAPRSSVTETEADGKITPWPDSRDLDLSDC

Cannabinoid receptor 1 = Cannabinoid receptor 1 (Rattus norvegicus, UniProt P20272)

Measured: Ki

Sequence of Muscarinic acetylcholine receptor M5 (P08912 whole entry): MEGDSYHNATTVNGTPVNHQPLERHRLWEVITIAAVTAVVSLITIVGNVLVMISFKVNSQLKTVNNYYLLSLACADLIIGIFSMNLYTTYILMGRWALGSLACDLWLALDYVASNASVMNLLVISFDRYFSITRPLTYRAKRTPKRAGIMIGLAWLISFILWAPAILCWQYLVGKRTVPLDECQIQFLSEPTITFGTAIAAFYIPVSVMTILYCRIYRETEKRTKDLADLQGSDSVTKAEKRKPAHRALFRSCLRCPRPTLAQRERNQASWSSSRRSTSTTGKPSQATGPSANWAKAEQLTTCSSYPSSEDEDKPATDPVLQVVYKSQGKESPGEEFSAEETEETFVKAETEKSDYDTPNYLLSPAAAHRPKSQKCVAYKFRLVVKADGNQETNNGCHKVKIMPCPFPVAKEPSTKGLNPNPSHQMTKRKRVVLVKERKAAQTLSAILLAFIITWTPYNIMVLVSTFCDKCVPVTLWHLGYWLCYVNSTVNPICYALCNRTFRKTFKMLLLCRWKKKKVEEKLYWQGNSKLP

NC(=O)c1cccc(-c2cccc(OC(=O)NC3CCCCC3)c2)c1 [URB 597]
> 10 µM: [1] | [2] | [3] | [4] | [5] | [6] | [7] | [8] | [9] | D(3) dopamine receptor | [10] | [11] | Histamine H2 receptor | [12] | [13] | [14] | [15] | [16] | [17] | [18] | [19] | [20] | [21] | Histamine H1 receptor | Mu-type opioid receptor | [22] | [23] | [24] | [25] | [26] | D(1A) dopamine receptor | D(2) dopamine receptor | [27] | [28] | D(4) dopamine receptor | [29] | [30] | D(1B) dopamine receptor | Cannabinoid receptor 2 | Cannabinoid receptor 1
